Results published in ChEMBL document CHEMBL1152163, “Development of novel 2-[4-(aminoalkoxy)phenyl]-4(3H)-quinazolinone derivatives as potent and selective histamine H3 receptor inverse agonists” (Bioorg Med Chem Lett, 2008).

Assays:
[1] = target: T1, Alpha-1A adrenergic receptor (Homo sapiens, UniProt P35348); experiment: Displacement of [3H]prazosin from human adrenergic alpha1A receptor expressed in LMtk- cells; assay type: cell-based
T1 sequence (P35348 whole entry): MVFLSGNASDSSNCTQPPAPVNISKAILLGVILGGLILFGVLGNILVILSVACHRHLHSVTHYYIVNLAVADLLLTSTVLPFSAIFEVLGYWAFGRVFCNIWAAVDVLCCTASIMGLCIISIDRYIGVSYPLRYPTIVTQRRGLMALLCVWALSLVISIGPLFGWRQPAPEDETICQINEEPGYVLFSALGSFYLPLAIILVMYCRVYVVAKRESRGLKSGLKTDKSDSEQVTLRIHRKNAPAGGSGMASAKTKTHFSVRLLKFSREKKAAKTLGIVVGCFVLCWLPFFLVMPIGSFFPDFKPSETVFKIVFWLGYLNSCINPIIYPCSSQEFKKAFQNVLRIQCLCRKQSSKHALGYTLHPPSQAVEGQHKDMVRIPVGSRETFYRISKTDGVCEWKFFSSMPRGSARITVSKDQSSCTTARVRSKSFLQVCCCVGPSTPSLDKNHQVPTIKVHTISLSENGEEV

Histamine H1 receptor = Histamine H1 receptor (Homo sapiens, UniProt P35367); experiment: Inhibition of human histamine H1 receptor
Histamine H2 receptor = Histamine H2 receptor (Homo sapiens, UniProt P25021); experiment: Inhibition of human histamine H2 receptor
Histamine H4 receptor = Histamine H4 receptor (Homo sapiens, UniProt Q9H3N8); experiment: Inhibition of human histamine H4 receptor
Rattus norvegicus [2] = experiment: Plasma clearance in Sprague-Dawley rat at 1 mg/kg, iv; assay type: ADME, organism-based; design: dose 1 mg/kg, route intravenous; conditions: in vivo
[3] = Volume of distribution at steady state in Sprague-Dawley rat at 1 mg/kg, iv; assay type: ADME, organism-based; design: dose 1 mg/kg, route intravenous; conditions: in vivo, read-out: Vdss
[4] = Half life in Sprague-Dawley rat at 1 mg/kg, iv; assay type: ADME, organism-based; design: dose 1 mg/kg, route intravenous; conditions: in vivo
[5] = Cmax in Sprague-Dawley rat at 3 mg/kg, po; assay type: ADME, organism-based; design: dose 3 mg/kg, route oral; conditions: in vivo
[6] = AUC (0 to infinity) in Sprague-Dawley rat at 3 mg/kg, po; assay type: ADME, organism-based; design: time infinity, dose 3 mg/kg, route oral; conditions: plasma
[7] = Oral bioavailability in Sprague-Dawley rat; assay type: ADME, organism-based; conditions: in vivo
Brain = experiment: Drug level in Sprague-Dawley rat brain at 10 mg/kg, po; assay type: ADME, organism-based; design: dose 10 mg/kg, route oral; conditions: in vivo
Rattus norvegicus [8] = experiment: Plasma concentration in Sprague-Dawley rat at 10 mg/kg, po; assay type: ADME, organism-based; design: dose 10 mg/kg, route oral; conditions: in vivo
Rattus norvegicus [9] = experiment: Increase in tele-methylhistamine level in po dosed Sprague-Dawley rat brain; assay type: functional, organism-based

Chain of Histamine H2 receptor (P25021 whole entry): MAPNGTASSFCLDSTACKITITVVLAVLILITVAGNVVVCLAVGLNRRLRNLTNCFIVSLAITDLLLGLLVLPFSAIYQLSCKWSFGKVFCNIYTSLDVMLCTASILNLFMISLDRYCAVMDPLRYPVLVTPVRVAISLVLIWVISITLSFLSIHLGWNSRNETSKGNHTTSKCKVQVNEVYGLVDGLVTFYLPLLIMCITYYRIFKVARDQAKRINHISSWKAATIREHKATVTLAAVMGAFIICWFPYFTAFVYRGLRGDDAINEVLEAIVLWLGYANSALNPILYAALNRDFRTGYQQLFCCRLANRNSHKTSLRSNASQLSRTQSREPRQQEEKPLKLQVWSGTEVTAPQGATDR
Chain of Histamine H4 receptor (Q9H3N8 whole entry): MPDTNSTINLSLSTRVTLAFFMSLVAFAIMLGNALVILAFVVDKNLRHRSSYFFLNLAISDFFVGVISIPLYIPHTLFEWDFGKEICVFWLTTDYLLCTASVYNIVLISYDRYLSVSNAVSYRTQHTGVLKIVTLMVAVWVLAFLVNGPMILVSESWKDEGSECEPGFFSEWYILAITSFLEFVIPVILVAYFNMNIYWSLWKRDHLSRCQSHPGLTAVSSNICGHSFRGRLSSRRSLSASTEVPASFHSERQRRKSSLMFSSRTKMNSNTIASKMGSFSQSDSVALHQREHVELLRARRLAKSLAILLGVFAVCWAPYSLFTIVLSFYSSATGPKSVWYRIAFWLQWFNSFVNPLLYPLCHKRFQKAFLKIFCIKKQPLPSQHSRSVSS
Chain of Histamine H1 receptor (P35367 whole entry): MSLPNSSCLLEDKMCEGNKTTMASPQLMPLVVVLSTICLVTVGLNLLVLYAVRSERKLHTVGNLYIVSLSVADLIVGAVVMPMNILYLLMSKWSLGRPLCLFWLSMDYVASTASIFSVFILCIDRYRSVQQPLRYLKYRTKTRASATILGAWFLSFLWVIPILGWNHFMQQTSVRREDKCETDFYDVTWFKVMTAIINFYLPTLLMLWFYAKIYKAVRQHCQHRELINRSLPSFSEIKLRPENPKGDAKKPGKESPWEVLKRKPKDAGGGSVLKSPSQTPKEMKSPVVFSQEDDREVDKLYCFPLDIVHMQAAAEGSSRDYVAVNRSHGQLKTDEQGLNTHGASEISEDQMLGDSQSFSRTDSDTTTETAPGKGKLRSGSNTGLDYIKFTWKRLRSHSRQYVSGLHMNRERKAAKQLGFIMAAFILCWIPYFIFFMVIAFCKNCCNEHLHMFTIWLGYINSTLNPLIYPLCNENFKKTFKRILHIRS

Row | SMILES | IC50 [1] [µM] | also measured
1 | Cn1c(-c2ccc(OC3CCN(C4CCC4)CC3)cc2)nc2c(C(F)(F)F)cccc2c1=O | > 10 | 
2 | Cc1cccc2c(=O)n(C)c(-c3ccc(OC4CCN(C5CCC5)CC4)cc3)nc12 | 10 | 
3 | O=c1c2ccccc2nc(-c2ccc(OCCCN3CCCCC3)cc2)n1-c1ccccc1 | 2.4 | 
4 | Cn1c(-c2ccc(OCCCN3CCCCC3)cc2)nc2ccccc2c1=O | 2.9 | 
5 | COc1nccc2c(=O)n(C)c(-c3ccc(OC4CCN(C5CCC5)CC4)cc3)nc12 | > 10 | IC50 (Histamine H1 receptor): > 10 µM; IC50 (Histamine H2 receptor): > 10 µM; IC50 (Histamine H4 receptor): > 10 µM; clearance (Rattus norvegicus [2]): 29 mL/min/kg; Vd [3]: 4.8 L/kg; half-life [4]: 2 h; Cmax [5]: 570 nM; AUC(0-inf) [6]: 2.1 µM·h; bioavailability [7]: 48%; Drug uptake (Brain): 2.96 nmol/g; concentration (Rattus norvegicus [8]): 2080 nM; Activity (Rattus norvegicus [9]): Dose-dependent effect
6 | O=c1c2ccccc2nc(-c2ccc(OCCCN3CCCCC3)cc2)n1Cc1ccccc1 | 7.2 | 
7 | Cn1c(-c2ccc(OC3CCN(C4CCC4)CC3)cc2)nc2ccccc2c1=O | 6.3 | 
8 | COc1ccc2nc(-c3ccc(OC4CCN(C5CCC5)CC4)cc3)n(C)c(=O)c2c1 | 5.9 | 
9 | CCn1c(-c2ccc(OCCCN3CCCCC3)cc2)nc2ccccc2c1=O | 1.3 | 
10 | COc1cccc2c(=O)n(C)c(-c3ccc(OC4CCN(C5CCC5)CC4)cc3)nc12 | > 10 | 
11 | COc1ccc2c(=O)n(C)c(-c3ccc(OC4CCN(C5CCC5)CC4)cc3)nc2c1 | > 10 | 
12 | Cn1c(-c2ccc(OC3CCN(C4CCCC4)CC3)cc2)nc2ccccc2c1=O | 6.2 | 
13 | Cn1c(-c2ccc(OC3CCN(C4CCC4)CC3)cc2)nc2c(F)cccc2c1=O | 4.5 | 
14 | Cn1c(-c2ccc(OC3CCN(C4CCC4)CC3)cc2)nc2c(Cl)cccc2c1=O | 6.5 | 
15 | Cn1c(-c2ccc(OCCCN3CCCC3)cc2)nc2ccccc2c1=O | 2.2 | 
16 | Cc1nc2ccccc2c(=O)n1-c1ccc(OCCCN2CCCCC2)cc1 | 6.5 | 
17 | COc1cccc2nc(-c3ccc(OC4CCN(C5CCC5)CC4)cc3)n(C)c(=O)c12 | 4.2 | 
